# According to paper PMC2248166, “Quantitative peptide binding motifs for 19 human and mouse MHC class I molecules derived using positional scanning combinatorial peptide libraries” (Immunome Research, 2008):
# Experiments:
# Assay type in all cases: binding
# HLA B*5401 = HLA B*5401 (Homo sapiens, UniProt P01889, A329T/C349S/D138N/D201E/E176V/E187T/E204Q/E69G/I76V/K202T/L119W/R155S/R180L/S121T/S35A/S48A/V127L/V306I/V36M/Y140L)
# HLA B*5802 = HLA B*5802 (Homo sapiens, UniProt P01889, A329T/C349S/D201E/D98Y/E176V/E187L/E204Q/E69T/G107R/I218V/I90N/K202T/L105A/N104I/N87E/Q89R/Q94S/R106L/R155S/R180L/R86G/S101N/S121W/S35A/S48A/V127L/V306I/V36M/Y140S/Y91M)
# H-2 K^d = H-2 K^d (Mus musculus, UniProt P01902)
# HLA B*3501 = HLA B*3501 (Homo sapiens, UniProt P01889, A329T/A93T/A95T/C349S/D201E/D98Y/E176V/E187L/E204Q/E69T/I218V/K202T/L119I/Q94N/R155S/R180L/S121R/S35A/S48A/T118I/V127L/V306I/V36M/Y140S/Y91F)
# HLA B*1501 = HLA B*1501 (Homo sapiens, UniProt P01889, A329T/A93T/A95T/C349S/D201E/D98Y/E187L/E204Q/E69M/E70A/K202T/N87E/Q94N/R155S/R180W/S121R/S35A/S48A/V306I/V36M/Y140S/Y91S); test: biochemical
# HLA A*3001 = HLA A*3001 (Homo sapiens, UniProt P04439, D140H/D185E/E176W/F33S/G80R/H175R/K168Q/R138E/R41S); test: biochemical
# HLA B*5101 = HLA B*5101 (Homo sapiens, UniProt P01889, A329T/A93T/A95T/C349S/D138N/D201E/D98Y/E187L/E204Q/E69T/G107R/I218V/K202T/L105A/L119W/N104I/Q94N/R106L/R155S/R180L/S101N/S121T/S35A/S48A/V306I/V36M/Y195H/Y91F)
# HLA B*0801 = HLA B*0801 (Homo sapiens, UniProt P01889, A93T/A95T/D138N/E176V/E187T/K202T/Q94N/R180D/S35A/V36M/Y33D/Y91F); test: biochemical
# HLA A*6802 = HLA A*6802 (Homo sapiens, UniProt P04439, A269V/D140Y/D185E/E176V/E277Q/E87N/F33Y/G231S/I121R/I166T/I218V/L180W/L300P/L318F/N151K/P208A/P217A/Q86R/R138H/R169H/S129P/T345S/V36M)
# HLA B*1503 = HLA B*1503 (Homo sapiens, UniProt P01889, A329T/A93T/A95T/C349S/D201E/D98Y/E187L/E204Q/K202T/N87E/Q94N/R155S/R180L/S121R/S35A/V306I/V36M/Y140S/Y91S); test: biochemical
# HLA A*3201 = HLA A*3201 (Homo sapiens, UniProt P04439, A270S/D101S/D185E/E176V/E277Q/F133L/G103R/G107R/G231S/H175R/I121M/I218V/I322F/K168Q/L105A/L300P/L318F/M331R/P208A/P217A/Q94H/R106L/R138Q/S129P/T104I/T323A/T345S/V100E/V321M/V358M); test: biochemical
# H-2 D^b = H-2 D^b (Mus musculus, UniProt P01899)
# H-2 K^k = H-2 K^k (Mus musculus, UniProt P04223)
# H-2 D^d = H-2 D^d (Mus musculus, UniProt P01900)
# HLA B*5801 = HLA B*5801 (Homo sapiens, UniProt P01889, A329T/C349S/D201E/D98Y/E176V/E187L/E204Q/E69T/G107R/I218V/I90N/K202T/L105A/L119I/N104I/N87E/Q89R/Q94S/R106L/R155S/R180L/R86G/S101N/S121R/S35A/S48A/T118I/V127L/V306I/V36M/Y140S/Y91M)
# HLA B*5301 = HLA B*5301 (Homo sapiens, UniProt P01889, A329T/A93T/A95T/C349S/D201E/D98Y/E176V/E187L/E204Q/E69T/G107R/I218V/K202T/L105A/L119I/N104I/Q94N/R106L/R155S/R180L/S101N/S121R/S35A/S48A/T118I/V127L/V306I/V36M/Y140S/Y91F)
# Chain of H-2 D^b (P01887 21-119): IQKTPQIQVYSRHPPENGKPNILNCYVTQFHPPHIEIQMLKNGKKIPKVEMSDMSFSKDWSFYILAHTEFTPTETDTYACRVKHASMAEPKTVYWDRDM
# Chain of H-2 D^b (P01899 25-362): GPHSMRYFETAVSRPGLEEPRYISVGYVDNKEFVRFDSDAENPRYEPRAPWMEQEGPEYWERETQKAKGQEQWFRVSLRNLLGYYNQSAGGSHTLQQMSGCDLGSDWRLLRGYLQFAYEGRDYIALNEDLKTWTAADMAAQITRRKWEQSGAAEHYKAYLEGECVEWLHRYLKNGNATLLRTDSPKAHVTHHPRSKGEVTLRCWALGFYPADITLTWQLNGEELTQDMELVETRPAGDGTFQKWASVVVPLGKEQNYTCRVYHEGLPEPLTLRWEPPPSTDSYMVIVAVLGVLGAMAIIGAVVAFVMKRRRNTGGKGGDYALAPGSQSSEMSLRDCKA
# Chain of H-2 K^k (P01887 21-119): as the sequence (P01887 21-119) above
# Chain of H-2 K^k (P04223 22-369): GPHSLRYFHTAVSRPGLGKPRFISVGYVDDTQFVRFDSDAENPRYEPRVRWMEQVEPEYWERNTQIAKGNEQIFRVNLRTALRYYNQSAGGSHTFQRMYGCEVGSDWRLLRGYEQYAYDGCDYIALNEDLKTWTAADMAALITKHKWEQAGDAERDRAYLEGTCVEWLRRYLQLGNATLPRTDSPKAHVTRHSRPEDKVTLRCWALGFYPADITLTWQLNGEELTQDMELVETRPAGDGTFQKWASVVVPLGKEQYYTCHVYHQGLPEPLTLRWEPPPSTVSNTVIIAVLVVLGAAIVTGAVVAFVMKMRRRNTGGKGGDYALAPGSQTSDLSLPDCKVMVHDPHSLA
# Chain of H-2 K^d (P01887 21-119): as the sequence (P01887 21-119) above
# Chain of H-2 K^d (P01902 22-368): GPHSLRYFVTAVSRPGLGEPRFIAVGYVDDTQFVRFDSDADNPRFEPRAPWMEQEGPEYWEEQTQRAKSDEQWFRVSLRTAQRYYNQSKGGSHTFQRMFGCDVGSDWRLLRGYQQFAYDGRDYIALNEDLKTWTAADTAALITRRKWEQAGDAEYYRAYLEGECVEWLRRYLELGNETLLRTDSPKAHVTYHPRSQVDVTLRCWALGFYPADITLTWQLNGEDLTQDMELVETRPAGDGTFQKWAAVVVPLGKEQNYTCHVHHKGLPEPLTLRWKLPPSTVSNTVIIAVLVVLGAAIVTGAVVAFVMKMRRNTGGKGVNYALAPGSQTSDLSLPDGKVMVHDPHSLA
# Chain of H-2 D^d (P01900 whole entry, looked up): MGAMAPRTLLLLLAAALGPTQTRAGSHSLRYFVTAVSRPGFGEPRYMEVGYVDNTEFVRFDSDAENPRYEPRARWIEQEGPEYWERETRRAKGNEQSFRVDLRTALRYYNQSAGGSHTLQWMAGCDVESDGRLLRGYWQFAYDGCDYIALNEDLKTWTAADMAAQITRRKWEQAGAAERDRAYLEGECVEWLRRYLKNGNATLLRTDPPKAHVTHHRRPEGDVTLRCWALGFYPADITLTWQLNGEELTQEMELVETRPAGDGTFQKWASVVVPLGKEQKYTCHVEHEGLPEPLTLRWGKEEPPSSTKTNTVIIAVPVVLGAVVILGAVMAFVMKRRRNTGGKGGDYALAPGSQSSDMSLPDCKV
Sequence,Normalized average relative binding affinity(ARB) (HLA B*5401),Normalized average relative binding affinity(ARB) (HLA B*5802),Normalized average relative binding affinity(ARB) (H-2 K^d),Normalized average relative binding affinity(ARB) (HLA B*3501),Normalized average relative binding affinity(ARB) (HLA B*1501),Normalized average relative binding affinity(ARB) (HLA A*3001),Normalized average relative binding affinity(ARB) (HLA B*5101),Normalized average relative binding affinity(ARB) (HLA B*0801),Normalized average relative binding affinity(ARB) (HLA A*6802),Normalized average relative binding affinity(ARB) (HLA B*1503),Normalized average relative binding affinity(ARB) (HLA A*3201),Normalized average relative binding affinity(ARB) (H-2 D^b),Normalized average relative binding affinity(ARB) (H-2 K^k),Normalized average relative binding affinity(ARB) (H-2 D^d),Normalized average relative binding affinity(ARB) (HLA B*5801),Normalized average relative binding affinity(ARB) (HLA B*5301)
XXXXKXXXX [3064.0089],0.049,0.58,0.011,0.12,0.31,0.16,0.29,0.47,0.14,0.13,0.16,0.032,0.091,0.44,0.11,0.042
XXXXLXXXX [3064.0090],0.15,0.063,0.18,0.23,0.69,0.14,0.30,0.062,0.43,0.090,0.57,0.10,0.11,0.28,0.25,0.18
XXXXMXXXX [3064.0091],0.72,0.42,0.60,0.98,0.41,0.33,0.45,0.078,0.78,0.064,0.31,0.086,0.24,0.19,0.092,0.38
XXXXNXXXX [3064.0092],0.34,0.31,0.21,1.0,0.56,0.12,0.40,0.037,0.30,0.26,0.16,1.0,0.090,0.19,0.13,0.17
XXXXPXXXX [3064.0093],0.51,0.075,0.094,0.37,0.89,0.53,0.50,0.011,0.16,0.46,0.16,0.038,0.072,0.023,0.19,0.14
